Test results from patent US12618847B2 (Purdue Research Foundation, priority 2020, dated 2026).
pIC50: −log10 of the molar value. “Also recorded” adds a separate entry of the source. Like-named read-outs stand apart in the source and are kept apart here. Values belong to the molecule of their own block, whether it stands above or below them. *1 amine or outer side, *2 acyl side, *3 side chain or, on linkers, in order; H or OH if unused. Where a SMILES comes first, the peptide text is derived from it. Where no end group is shown, it is not given here. [ ]: non-standard residue; d: D form. The star is where a group is joined. Phe(4-NO2) = N[C@@H](Cc1ccc([N+](=O)[O-])cc1)C(=O)O; Phe(4-Cl) = N[C@@H](Cc1ccc(Cl)cc1)C(=O)O; 2Thi = N[C@@H](Cc1cccs1)C(=O)O; AMC = Cc1cc(=O)oc2cc(N*)ccc12; Suc = O=C(CCC(=O)[*:2])[*:1]; Nva = CCC[C@H](N)C(=O)O; Cbz = O=C(OCc1ccccc1)*

Assays:
20S CP [1] = target: T1, 20S CP (Homo sapiens, UniProt P20618+P28074); assay: LC/MS assay of peptide library as 20S CP substrates; assay type: biochemical; settings: 12 μM peptide, 9 nM 20S CP, 37° C., one hour
Description: To evaluate this set of peptides as potential 20S CP substrates, we applied a similar LC/MS-based assay to that used to discover the immunoproteasome probe. Briefly, the peptides were dissolved in DMSO at a stock concentration of 600 μM. The peptides were then diluted in 50 mM tris buffer, pH 7.4, in a 96-well plate for a final assay concentration of 12 μM in two sets of triplicates. One set of triplicates served as a negative control, incubated in tris buffer alone. For analysis, this would correspond to the ionization intensity of completely intact samples, which can then be compared to the amount of intact peptide remaining in 20S CP-treated samples. To the other triplicate was added 20S CP to a final concentration of 9 nM. All samples were incubated at 37° C. for one hour before an equal volume of acetonitrile was added to halt degradation by denaturing the 20S CP. Samples were dried, resuspended in 50/50 water/acetonitrile with 0.1% formic acid and analyzed by LC/MS (example spectra can be found in Supporting Information Appendix B).
For each peptide, the mass of the full (uncleaved) structure was extracted (extracted ion chromatogram, EIC) from each sample and this peak was integrated to obtain the peak area. The peak areas for the negative control samples of individual structures were averaged and set to 1. Peak areas for 20S CP-treated samples were then scaled to the average for the untreated sample and the triplicates averaged to obtain a value for the fraction of full peptide remaining (FIG. 4). To confirm that the peptide was being cleaved at the desired position, the mass of the corresponding 4mer-peptide cleavage product was found in each 20S CP-treated sample with significant decrease in full peptide observed.

MM.1R = assay: Cell viability by Cell-Titer Glo; assay type: cell-based; settings: 48 hours
Description: (§1) We also sought to correlate this proteasome activity trend with susceptibility to a proteasome inhibitor by determining the IC50 values of MG-132 with these six cells. Cells were dosed for 48 hours with increase concentrations of MG-132 then analyzed using Cell-Titer Glo to determine cell viability. […] Considering this, we still believe comparing cell lines for proteasome activity based on fluorescence with TAS2 would still provide insight to the relative dependency of various cancer cell lines on proteasome activity.

[2] = test system: A498, SK-MEL-2, MEL-92.1, SH-SY5Y and HEK293T cell lines; assay: Cell viability by Cell-Titer Glo; assay type: cell-based; settings: remaining cell lines, 48 hours
Description: as §1

A549 cells = assay: Probe cleavage in live A549 cells with or without MG-132 pretreatment; assay type: cell-based; settings: MG-132 10 μM pre-incubated one hour, each TAS probe at 10 μM
Description: We next sought to determine if the TAS probes would be suitable for cell-based assays. To accomplish this, A549 cells were plated at a density of 5,000 cells/well in a black 96 well plate with a black bottom. After allowing the cells to adhere to the plate, the samples were washed with PBS three times then dosed with 10 μM of each probe in modified KRBH buffer. The change in fluorescence was recorded on a microplate reader for 90 min. After allowing the signal to equilibrate for […], each sample was set to zero and the future time points were scaled accordingly. As was done with the biochemical data, a linear regression was fit to each set of data. From the slope, it is observed that the rate for TAS2 was the highest. To determine the in-cell selectivity, a set of samples pretreated with MG-132 (10 μM), a proteasome inhibitor, was included for each probe. These samples were pre-incubated with MG-132 in cell culture media for one hour before washing with PBS and dosing with each probe in modified KRBH buffer. […] To ensure this decrease was not a consequence of cell death, cells were treated in the same way and analyzed using Cell-Titer Glo.

proteasome = test system: T2, proteasome; assay: Proteasome stimulation in cells monitored with TAS probes; assay type: cell-based
T2 construct: endogenous in cells; host or cells: A549 (inferred; the stimulator paragraph says only 'cells')
From the text: In addition to determining if our probes are capable of detecting a decrease in proteasome activity, we were also interested in monitoring molecules which have shown to increase proteasome activity, also known as proteasome stimulators. […] However, this method requires transfection of the MT-fusion protein into cells and analysis by Western blot. Given the promising results with MG-132, we expected our probes to be sensitive enough to detect proteasome stimulation in a similar manner. Using three molecules reported to have various degrees of stimulation, cells were dosed for one hour before washing and adding in each probe. The samples were then monitored for changes in fluorescence and analyzed in the same way as the MG-132 experiment.
Previously proteasome stimulators had been discovered using a biochemical assay that required purified proteasome. As with all enzyme purifications, the batch to batch activity can vary greatly, leading to inconsistent results. […]
Using three different stimulating small molecules previously validated using other methods, we found both TAS1 and TAS3 would be suitable to use in such an assay. […] An increase in proteasome activity can be detected after as little as 15 min of incubation time, which can help to increase throughput during a screening campaign. […]

[3] = test system: human purified 20S proteasome; assay: Detection of small molecule stimulators with TAS probes using purified 20S proteasome (FIG. 7B-7D); assay type: biochemical; settings: detected with TAS1 and TAS3
Description: FIG. 7B-7D show the analysis of TAS probes (TAS-1-B, TAS-2-C, TAS-3-D) for their ability to detect different small molecule stimulators using human purified 20S proteasome.
All three probes were able to detect stimulation is determined by an increase in the % activity over 60 min as compared to the DMSO control. Both TAS1 and TAS3 can differentiate between weak (TRC-1 and TCM-1) and strong proteasome stimulators (MK-886).

[4] = Human serum stability of library peptides by LC/MS; assay type: in vitro ADME; settings: 20S CP one hour vs 10% human serum 10 min
From the text: This is supported by when we first optimized conditions for treating the peptides with human serum using Tyr-containing peptide.
Specifically, these were the four Phe derivatives tested. […] Because we were interested in the effects of unnatural amino acids in increasing the specificity of our 20S CP recognition sequence, we moved forward with Phe(4-Cl) and Phe(4-NO2) as Tyr substitutes in our probe structure to create TAS2 and TAS3, respectively (FIG. 1B).

20S CP [5] = assay: purified 20S CP; settings: 37° C., up to two hours
[6] = 10% v/v human serum in tris buffer; settings: up to 60 min
20S CP [7] = settings: cited from earlier work
20S CP [8] = target: T1, 20S CP; assay: Fluorescence hydrolysis of probes by purified 20S CP (plate reader); assay type: biochemical
Description: The peptide recognition sequence used was based on the commercially available 4-mer AMC probe (FIG. 1A), specifically Leu-Leu-Val-Tyr (SEQ ID NO: 1), to generate TAS1 (FIG. 1B). To determine if TAS1 had any enhanced sensitivity, the two probes were compared under the same conditions with purified 20S CP. Briefly, the probes were incubated in triplicate at 10 and 30 μM with 9 nM […] at 37° C. The change in fluorescence was monitored for two hours and the endpoint values were averaged and graphed for comparison (FIG. 1C). Because the two fluorophores have different excitation and emission wavelengths, the two experiments were performed separately but using the same conditions for the plate reader (i.e. gain, number of flashes, settling time, etc.). […] Since, unlike Suc-LLVY-AMC (SEQ ID NO: 1), TAS1 has the potential to have more than one cleavage site which could result in an increase in fluorescence (on either side of Rh110), we confirmed that the increase in signal is only from the recognition and cleavage of the peptide at the Tyr moiety by analyzing the 30 μM TAS1 samples by LC/MS (FIG. 2).
With these new peptide sequences in hand, we returned to incorporating the Rh110-peptoid moiety and to compare the cleavage of TAS1-3 with the 20S CP. We incubated all three probes at various concentrations with 9 nM 20S CP and monitored the change in fluorescence using a microplate reader. […] In order to compare the three probes, we fit a linear regression for the points from 10-60 min for 30 μM of each probe to obtain a rate for the change in fluorescence (Table 1). Of the three, TAS1 was hydrolyzed the quickest, although the slope for TAS2 was similar. […] To confirm that the change in fluorescence was due to amide bond cleavage at the expected site on the peptide, we analyzed the samples at a concentration of 30 μM by LC/MS (FIG. 3).

Peptide cleaved by 20S CP (20S CP [1]): ~50%
Molecule: N[C@@H](CCO)C(=O)O [Hse]

Increase in proteasome activity vs DMSO (proteasome; probe TAS1, cells dosed one hour): greater than 3 fold
Increase in proteasome activity vs DMSO (proteasome; probe TAS3, cells dosed one hour): greater than 3 fold
Proteasome stimulator strength (% activity over 60 min vs DMSO) [3]: strong
Molecule: CC(C)c1ccc2c(c1)c(SC(C)(C)C)c(CC(C)(C)C(=O)O)n2Cc1ccc(Cl)cc1 [MK-886]

Cleavage of peptide by 20S CP (in words) (20S CP [1]): significantly cleaved
Molecule: CNCC(=O)O [Sar]
Cleavage by 20S CP compared to human serum [4]: no significant difference in cleavage; also recorded: near equal cleavage by both

Peptide cleaved by 20S CP (20S CP [1]): ~50%
Molecule: CCCC[C@H](N)C(=O)O [norleucine]

cleaved bond (20S CP [5]): Tyr-Rh110
Molecule: Leu-Leu-Val-Tyr
not cleaved (20S CP [5]): only new peaks formed were the expected cleavage products
cleaved bond [6]: Leu-Leu, first_seen, 30 min; also recorded: Leu-Val, 60 min
not cleaved [6]: no productive cleavage for either 30 or 60 min

Peptide cleaved by 20S CP (20S CP [1]): ~50%
Molecule: Nva: library peptide with norvaline in S1 position replacing Tyr, Ala-Ala dipeptide (LLV[Nva]AA-NH2; N-terminus assumed; SMILES CCC[C@H](NC(=O)[C@@H](NC(=O)[C@H](CC(C)C)NC(=O)[C@@H](N)CC(C)C)C(C)C)C(=O)N[C@@H](C)C(=O)N[C@@H](C)C(N)=O)

Rate of Hydrolysis (20S CP [8]; 30 μM probe, 9 nM purified 20S CP, linear regression 10-60 min): 28.1 ΔRFU/min
Background fluorescence level (20S CP [8]; purified 20S CP assay): considerably higher level of background
Molecule: TAS3: Rh110-based peptide/peptoid hybrid probe with Phe(4-NO2) as Tyr substitute (LLV[Phe(4-NO2)]; also: Rh110-based probe, place not given here, peptide/peptoid hybrid)
Cleavage products after incubation with 20S CP (LC/MS) (20S CP [8]; 30 μM probe, LC/MS): only produced the expected cleavage products

Cleavage of peptide by 20S CP (in words) (20S CP [1]): highest amount of cleavage
Molecule: Thi: library peptide with thienylalanine in S1 position replacing Tyr, Ala-Ala dipeptide (LLV[2Thi]AA-NH2; N-terminus assumed; SMILES CC(C)C[C@H](NC(=O)[C@@H](N)CC(C)C)C(=O)N[C@H](C(=O)N[C@@H](Cc1cccs1)C(=O)N[C@@H](C)C(=O)N[C@@H](C)C(N)=O)C(C)C)
Cleavage by 20S CP compared to human serum [4]: near equal cleavage by both

More lines, now with the values behind:

Molecule: CC(C)C[C@@H](C=O)NC(=O)[C@H](CC(C)C)NC(=O)[C@H](CC(C)C)NC(=O)OCc1ccccc1 [MG-132] (Cbz-Leu-Leu-Leu-aldehyde)
pIC50 (MM.1R): 6.58
IC50 (cell viability) [2]: higher than that of MM.1R
Decrease of slope of probe cleavage (A549 cells): ≥ 50%

Molecule: D-Phe: library peptide with D-Phe moiety in S1 position replacing Tyr, Ala-Ala dipeptide (LLV[dF]AA-NH2; N-terminus assumed; SMILES CC(C)C[C@H](NC(=O)[C@@H](N)CC(C)C)C(=O)N[C@H](C(=O)N[C@H](Cc1ccccc1)C(=O)N[C@@H](C)C(=O)N[C@@H](C)C(N)=O)C(C)C)
Cleavage of peptide by 20S CP (in words) (20S CP [1]): did not accept

Molecule: Phe(4-Cl): library peptide with Phe(4-Cl) in S1 position replacing Tyr, Ala-Ala dipeptide (LLV[Phe(4-Cl)]AA-NH2; N-terminus assumed; SMILES CC(C)C[C@H](NC(=O)[C@@H](N)CC(C)C)C(=O)N[C@H](C(=O)N[C@@H](Cc1ccc(Cl)cc1)C(=O)N[C@@H](C)C(=O)N[C@@H](C)C(N)=O)C(C)C)
Cleavage by 20S CP compared to human serum [4]: greater than three-times favored cleavage by the 20S CP

Molecule: Phe(4-NO2): library peptide with Phe(4-NO2) in S1 position replacing Tyr, Ala-Ala dipeptide (LLV[Phe(4-NO2)]AA-NH2; N-terminus assumed; SMILES CC(C)C[C@H](NC(=O)[C@@H](N)CC(C)C)C(=O)N[C@H](C(=O)N[C@@H](Cc1ccc([N+](=O)[O-])cc1)C(=O)N[C@@H](C)C(=O)N[C@@H](C)C(N)=O)C(C)C)
Cleavage by 20S CP compared to human serum [4]: greater than three-times favored cleavage by the 20S CP

Molecule: Phe: library peptide with Phe in S1 position replacing Tyr, Ala-Ala dipeptide (LLVFAA)
Cleavage by 20S CP compared to human serum [4]: greater than three-times favored cleavage by the 20S CP

Molecule: Suc-LLVY-{AMC}
cleaved bond (20S CP [7]): Tyr-AMC
